From patent US11000033B2, “Ketone or oxime compound, and herbicide” (NISSAN CHEMICAL CORPORATION, priority 2014, dated 2021)

Columns and labels:
Format in all cases: in vivo
[1] = tested on: Echinochloa crus-galli var. crus-galli; assay: Test Example 4: herbicidal effect by soil treatment (symbol H)
Method in brief: (§1)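 Seeds were sown in sterilized diluvial soil, covered with about 1.5 cm of soil, and the soil surface was sprayed with a water-diluted emulsion of the compound at a predetermined rate. Plants grew in a greenhouse at 25° C. to 30° C.; effects were scored visually 3 weeks after application.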

Abutilon theophrasti = assay: Test Example 4: herbicidal effect by soil treatment (symbol M)
Method in brief: as §1

Stellaria media [2] = assay: Test Example 5: herbicidal effect by foliage application, plastic box (symbol P); settings: 320 g/ha, 3 weeks after application
Method in brief: (§2)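 Leaf-applied emulsion, water-diluted to a preset herbicide dose, on two-week-old seedlings raised in a 25° C. to 30° C. greenhouse; injury rated at 3 weeks using earlier criteria.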

Cyperus difformis = assay: Test Example 3: herbicidal effect by foliage application, Wagner pot (symbol E); settings: application herbicide amount 320 g/ha
Method in brief: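 Herbicidal activity was rated three weeks after a foliar spray of diluted emulsion concentrate, applied at a predetermined dose to plants grown for 14 days from seed in waterlogged alluvial soil within a 25–30 °C greenhouse.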

Monochoria vaginalis = assay: Test Example 2: herbicidal activity, application during weed generation in submerged conditions (symbol C); settings: Table 23; application herbicide amount 320 g/ha; grade 0-5 by criteria of Test Example 1
Method in brief: (§3)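 Visual herbicidal ratings, taken three weeks after dosing, reflect post-emergence water-surface application to seedlings at one to two leaves. Conditions: co-sown weeds in alluvial soil flooded to 4 cm, greenhouse held at 25° C. to 30° C.; compound given as water-diluted emulsion at a fixed herbicide amount.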

[3] = tested on: Echinochloa oryzacola Vasing.; assay: Test Example 1: herbicidal activity, application before weed generation in submerged conditions (symbol A); settings: application herbicide amount 320 g/ha
Method in brief: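 Steps: alluvial soil flooded to 4 cm; weed seeds sown together; rice seedlings (2.5 leaf) transplanted; diluted emulsion applied to water surface the same day as sowing; plants grown at 25–30 °C in greenhouse; herbicidal effect rated on a 0–5 scale at 3 weeks.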

rapeseed = assay: Test Example 5: effect on crop by foliage application, plastic box (symbol g); settings: 320 g/ha, 3 weeks after application
Method in brief: (§4)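 Soil: sterilized diluvial. Container: plastic box, 21 × 13 cm, 7 cm deep. Sowing: spot-like, ~1.5 cm cover. Growth: greenhouse, 25° C. to 30° C.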

rice plant = assay: Test Example 5: effect on crop by foliage application, plastic box (symbol b); settings: 320 g/ha, 3 weeks after application
Method in brief: as §4

[4] = tested on: Echinochloa oryzacola Vasing.; assay: Test Example 2: herbicidal activity, application during weed generation in submerged conditions (symbol A); settings: Table 23; application herbicide amount 320 g/ha; grade 0-5 by criteria of Test Example 1
Method in brief: as §3

Stellaria media [5] = assay: Test Example 4: herbicidal effect by soil treatment (symbol P)
Method in brief: as §1

Apera spica-venti = assay: Test Example 5: herbicidal effect by foliage application, plastic box (symbol L); settings: 320 g/ha, 3 weeks after application
Method in brief: as §2

Digitaria ciliaris = assay: Test Example 5: herbicidal effect by foliage application, plastic box (symbol F); settings: 320 g/ha, 3 weeks after application
Method in brief: as §2

[6] = tested on: directly sowed rice plant; assay: Test Example 3: effect on crop by foliage application, Wagner pot (symbol b); settings: application herbicide amount 320 g/ha
Method in brief: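 Plants are raised from seed in flooded paddy conditions: water stands 0.1–0.5 cm over alluvial soil, and the pot is kept in a greenhouse at 25–30 °C. Species sown are barnyardgrass (E. crus-galli var. crus-galli), Leptochloa chinensis, Cyperus difformis and rice.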

Avena fatua = assay: Test Example 5: herbicidal effect by foliage application, plastic box (symbol I); settings: 320 g/ha, 3 weeks after application
Method in brief: as §2

[7] = application herbicide amount 320 g/ha

Row | Structure (SMILES) | H: Echinochloa crus-galli var. crus-galli, herbicidal effect grade [1, 7] | M: Abutilon theophrasti, herbicidal effect grade (Abutilon theophrasti; [7]) | P: Stellaria media, herbicidal effect grade (Stellaria media [2]) | herbicidal effect on E, grade 0-5 (Cyperus difformis) | Herbicidal effect grade, C: Monochoria vaginalis (Monochoria vaginalis) | Herbicidal effect grade, A: Echinochloa oryzacola Vasing. [3] | g: rapeseed, effect on crop grade (rapeseed) | b: directly sowed rice plant, effect on crop grade (rice plant) | Herbicidal effect grade, A: Echinochloa oryzacola Vasing. [4] | P: Stellaria media, herbicidal effect grade (Stellaria media [5]; [7]) | L: Apera spica-venti, herbicidal effect grade (Apera spica-venti) | F: Digitaria ciliaris, herbicidal effect grade (Digitaria ciliaris) | effect on crop b (directly sowed rice plant), grade 0-5 [6] | I: Avena fatua, herbicidal effect grade (Avena fatua) | H: Echinochloa crus-galli var. crus-galli, herbicidal effect grade ([1]; 320 g/ha) | M: Abutilon theophrasti, herbicidal effect grade (Abutilon theophrasti; 320 g/ha) | P: Stellaria media, herbicidal effect grade (Stellaria media [5]; 320 g/ha) | other results
1 | CON=C(C)CC1CC(O)=C(c2c(C)cc(-c3ccc(C(F)(F)F)cc3)cc2C)C1=O (mixture of isomers) [6-016] | 4 (Herbicidal ratio of 70% or higher and lower than 90%) | 0 (Herbicidal ratio of 5% or lower (almost no effect)) | 0 (Herbicidal ratio of 5% or lower (almost no effect)) | 1 (Herbicidal ratio of 5% or higher and lower than 20%) | 0 (Herbicidal ratio of 5% or lower (almost no effect)) | 5 (Herbicidal ratio of 90% or more (almost completely withered)) | 1 (Herbicidal ratio of 5% or higher and lower than 20%) | 5 (Herbicidal ratio of 90% or more (almost completely withered)) | 3 (Herbicidal ratio of 40% or higher and lower than 70%) | 0 (Herbicidal ratio of 5% or lower (almost no effect)) | 5 (Herbicidal ratio of 90% or more (almost completely withered)) | 5 (Herbicidal ratio of 90% or more (almost completely withered)) | 5 (Herbicidal ratio of 90% or more (almost completely withered)) | 4 (Herbicidal ratio of 70% or higher and lower than 90%) |  |  |  | 
2 | COC(=O)C(C(C)=O)C1CC(O)=C(c2c(C)cc(C)cc2C)C1=O (stereo not drawn) [2-003] |  |  | 0 (Herbicidal ratio of 5% or lower (almost no effect)) | 4 (Herbicidal ratio of 70% or higher and lower than 90%) | 0 (Herbicidal ratio of 5% or lower (almost no effect)) | 0 (Herbicidal ratio of 5% or lower (almost no effect)) | 3 (Herbicidal ratio of 40% or higher and lower than 70%) | 5 (Herbicidal ratio of 90% or more (almost completely withered)) | 0 (Herbicidal ratio of 5% or lower (almost no effect)) |  | 4 (Herbicidal ratio of 70% or higher and lower than 90%) | 4 (Herbicidal ratio of 70% or higher and lower than 90%) | 4 (Herbicidal ratio of 70% or higher and lower than 90%) | 5 (Herbicidal ratio of 90% or more (almost completely withered)) | 0 (Herbicidal ratio of 5% or lower (almost no effect)) | 0 (Herbicidal ratio of 5% or lower (almost no effect)) | 0 (Herbicidal ratio of 5% or lower (almost no effect)) | 
3 | CON=C(C)CC1CC(O)=C(c2c(C)cc(-c3cccc(Cl)c3)cc2C)C1=O (mixture of isomers) [6-034] | 5 (Herbicidal ratio of 90% or more (almost completely withered)) | 1 (Herbicidal ratio of 5% or higher and lower than 20%) | 3 (Herbicidal ratio of 40% or higher and lower than 70%) | 4 (Herbicidal ratio of 70% or higher and lower than 90%) | 3 (Herbicidal ratio of 40% or higher and lower than 70%) | 5 (Herbicidal ratio of 90% or more (almost completely withered)) | 4 (Herbicidal ratio of 70% or higher and lower than 90%) | 5 (Herbicidal ratio of 90% or more (almost completely withered)) | 5 (Herbicidal ratio of 90% or more (almost completely withered)) | 0 (Herbicidal ratio of 5% or lower (almost no effect)) | 5 (Herbicidal ratio of 90% or more (almost completely withered)) | 5 (Herbicidal ratio of 90% or more (almost completely withered)) | 5 (Herbicidal ratio of 90% or more (almost completely withered)) | 5 (Herbicidal ratio of 90% or more (almost completely withered)) |  |  |  | 
4 | CON=C(C)CC1CC(OC(=O)C(C)(C)c2ccc(Cl)cc2)=C(c2c(C)cc(C)cc2C)C1=O (stereo not drawn) [1-148] |  |  |  | 4 (Herbicidal ratio of 70% or higher and lower than 90%) | 4 (Herbicidal ratio of 70% or higher and lower than 90%) | 5 (Herbicidal ratio of 90% or more (almost completely withered)) |  |  | 5 (Herbicidal ratio of 90% or more (almost completely withered)) |  |  |  | 5 (Herbicidal ratio of 90% or more (almost completely withered)) |  | 5 (Herbicidal ratio of 90% or more (almost completely withered)) | 5 (Herbicidal ratio of 90% or more (almost completely withered)) | 0 (Herbicidal ratio of 5% or lower (almost no effect)) | P: Stellaria media, herbicidal effect (criteria 0-5) (Stellaria media [2]): 3 (Herbicidal ratio of 40% or higher and lower than 70%); g: rapeseed, effect on crop (criteria 0-5) (rapeseed): 5 (Herbicidal ratio of 90% or more (almost completely withered)); b: directly sowed rice plant, effect on crop (criteria 0-5) (rice plant): 5 (Herbicidal ratio of 90% or more (almost completely withered)); L: Apera spica-venti, herbicidal effect (criteria 0-5) (Apera spica-venti): 5 (Herbicidal ratio of 90% or more (almost completely withered)); F: Digitaria ciliaris, herbicidal effect (criteria 0-5) (Digitaria ciliaris): 5 (Herbicidal ratio of 90% or more (almost completely withered)); I: Avena fatua, herbicidal effect (criteria 0-5) (Avena fatua): 5 (Herbicidal ratio of 90% or more (almost completely withered))
5 | Cc1cc(C)c(C2=C(O)CC(CC(=O)C3CCCCC3)C2=O)c(C)c1 (stereo not drawn) [2-030] | 1 (Herbicidal ratio of 5% or higher and lower than 20%) | 0 (Herbicidal ratio of 5% or lower (almost no effect)) | 0 (Herbicidal ratio of 5% or lower (almost no effect)) | 0 (Herbicidal ratio of 5% or lower (almost no effect)) | 0 (Herbicidal ratio of 5% or lower (almost no effect)) | 4 (Herbicidal ratio of 70% or higher and lower than 90%) | 3 (Herbicidal ratio of 40% or higher and lower than 70%) | 5 (Herbicidal ratio of 90% or more (almost completely withered)) | 3 (Herbicidal ratio of 40% or higher and lower than 70%) | 0 (Herbicidal ratio of 5% or lower (almost no effect)) | 2 (Herbicidal ratio of 20% or higher and lower than 40%) | 4 (Herbicidal ratio of 70% or higher and lower than 90%) | 5 (Herbicidal ratio of 90% or more (almost completely withered)) | 1 (Herbicidal ratio of 5% or higher and lower than 20%) |  |  |  | 
6 | CON=C(C)CC1CC(O)=C(c2c(C)cc(Br)cc2C)C1=O (stereo not drawn) [6-003] | 5 (Herbicidal ratio of 90% or more (almost completely withered)) | 5 (Herbicidal ratio of 90% or more (almost completely withered)) | 2 (Herbicidal ratio of 20% or higher and lower than 40%) | 5 (Herbicidal ratio of 90% or more (almost completely withered)) | 3 (Herbicidal ratio of 40% or higher and lower than 70%) | 5 (Herbicidal ratio of 90% or more (almost completely withered)) | 4 (Herbicidal ratio of 70% or higher and lower than 90%) | 5 (Herbicidal ratio of 90% or more (almost completely withered)) | 4 (Herbicidal ratio of 70% or higher and lower than 90%) | 0 (Herbicidal ratio of 5% or lower (almost no effect)) | 5 (Herbicidal ratio of 90% or more (almost completely withered)) | 5 (Herbicidal ratio of 90% or more (almost completely withered)) | 5 (Herbicidal ratio of 90% or more (almost completely withered)) | 5 (Herbicidal ratio of 90% or more (almost completely withered)) |  |  |  | 
